Experimental findings from patent US11712438B2, “Phenyl derivatives as PGE2 receptor modulators” (IDORSIA PHARMACEUTICALS LTD, priority 2017, dated 2023) are described below.

Each structure is given as a SMILES string.

Targets include PTGER2 (EP2) (Homo sapiens, UniProt P43116); PTRGER4 (EP4) (Homo sapiens, UniProt P35408); EP2 (Homo sapiens, UniProt P43116); EP4 (Homo sapiens, UniProt P35408).
What all share (experiment): cell-based

EP2, sequence (P43116 whole entry): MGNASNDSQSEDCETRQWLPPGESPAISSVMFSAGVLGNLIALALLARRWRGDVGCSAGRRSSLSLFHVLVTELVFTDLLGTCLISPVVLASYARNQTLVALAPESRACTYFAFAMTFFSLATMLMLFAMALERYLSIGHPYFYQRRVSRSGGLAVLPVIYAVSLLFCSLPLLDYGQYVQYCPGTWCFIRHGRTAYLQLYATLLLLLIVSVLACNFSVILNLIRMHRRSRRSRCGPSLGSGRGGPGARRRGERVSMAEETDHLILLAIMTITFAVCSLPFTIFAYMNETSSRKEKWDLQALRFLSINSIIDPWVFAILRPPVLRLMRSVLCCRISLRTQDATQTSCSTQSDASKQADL
PTGER2 (EP2), sequence (P43116 whole entry): as above
EP4, sequence (P35408 whole entry): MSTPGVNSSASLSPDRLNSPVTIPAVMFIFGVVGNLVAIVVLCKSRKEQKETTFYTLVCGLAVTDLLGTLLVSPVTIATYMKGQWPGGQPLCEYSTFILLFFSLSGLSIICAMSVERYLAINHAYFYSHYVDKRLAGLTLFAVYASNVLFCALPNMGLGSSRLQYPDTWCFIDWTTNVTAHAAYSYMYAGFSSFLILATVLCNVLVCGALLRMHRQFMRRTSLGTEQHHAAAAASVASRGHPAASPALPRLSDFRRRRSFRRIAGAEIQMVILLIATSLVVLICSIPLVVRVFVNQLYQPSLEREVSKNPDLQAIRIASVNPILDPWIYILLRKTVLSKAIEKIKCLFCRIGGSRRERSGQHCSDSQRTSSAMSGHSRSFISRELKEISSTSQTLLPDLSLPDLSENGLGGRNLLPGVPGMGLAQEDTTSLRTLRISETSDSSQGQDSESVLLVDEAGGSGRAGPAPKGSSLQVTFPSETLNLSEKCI
PTRGER4 (EP4), sequence (P35408 whole entry): as above
Excerpt for PTRGER4 (EP4): The assay is using the PathHunter™ HEK 293 PTGER2 and PTGER4 b-arrestin cell lines from DiscoverX. The system is based on the Enzyme Fragment Complementation Technology. Two complementing fragments of the b-galactosidase enzyme are expressed within stably transfected cells. The larger portion of b-gal, termed EA for Enzyme Acceptor, is fused to the C-terminus of b-arrestin 2. The smaller fragment, termed ProLink™ tag, is fused to PTGER2 (EP2) or PTRGER4 (EP4) at the C-terminus. Upon activation, b-arrestin is recruited which forces the interaction of ProLink and EA, allowing complementation of the two fragments of b-gal and the formation of a functional enzyme which is capable of hydrolysing the substrate and generating a chemiluminescent signal.
The HEK 293 PTGER4 b-arrestin cells (DiscoverX 93-030-4C1) are detached from culture dishes with a cell dissociation buffer (Invitrogen, 13151-014), and collected in growing medium (GM: DMEM+Glutamax-I (Invitrogen 32430)/10% FCS, 1% Penicilin/streptomycin). 5000 cells per well of a 384 well plate (white with white bottom Greiner 781080) are seeded in 20 ul per well of GM. Plate is incubated at 37° C., 5% CO2 for 24 hours.
Stock solutions of test compounds are made at a concentration of 10 mM in DMSO, and serially diluted in DMSO to concentrations required for inhibition dose response curves (tested concentration range 10 μM-2 nM or 1 μM-0.2 nM).
PGE2 (Cayman 14010, stock solution: 100 uM in DMSO) is used as agonist at 20 nM final concentration, corresponding to EC80.
Five microliters of diluted compounds are transferred into the assay plate. Plate is pre-incubated 15 minutes at 37° C. Then five microliters of PGE2 (final conc. 20 nM) are transferred into the assay plate. Plate is incubated 120 minutes at 37° C.
Twelve μl of reagent are transferred to the assay plate and incubate for 1 hour at room temperature in the dark. Luminescence counts are read on a BMG Fluostar Optima reader according to manufacturers instructions.
For each compound concentration calculate of the percentage of activity compared to DMSO control value as average±STDEV. (each concentration is measured in duplicate)
When compounds were measured multiple times, mean values are given.

Usually IC50 stands for the concentration that inhibits the measured activity by half. Read a high IC50 as lower potency. Consider `O=C(O)Cc1sc(-c2cc(NCCc3c(F)cc(Br)cc3F)ncn2)cc1OC(F)F` [Example 315, (5-{6-[2-(4-Bromo-2,6-difluoro-phenyl)-ethylamino]-pyrimidin-4-yl}-3-difluoromethoxy-thiophen-2-yl)-acetic acid], for which the IC50 was 25 nM against PTGER2 (EP2), 38 nM at PTRGER4 (EP4), 17 nM against EP2 and 28 nM on EP4.

Turning to `CCOc1cc(-c2cc(NCCc3ccc(OC)cc3CC)ncn2)sc1-c1noc(=O)[nH]1` [Example 99, 3-(3-Ethoxy-5-{6-[2-(2-ethyl-4-methoxy-phenyl)-ethylamino]-pyrimidin-4-yl}-thiophen-2-yl)-[1,2,4]oxadiazol-5(4H)-one], the half-maximal inhibitory concentration (IC50) against PTGER2 (EP2) was determined as 75 nM; against PTRGER4 (EP4), 45 nM; on EP2, 80 nM; against EP4 it was 69 nM.

Consider `O=C(O)c1cccc2[nH]c(-c3cc(NCCc4c(F)cc(Br)cc4F)ncn3)cc12` [Example 46, 2-{6-[2-(4-Bromo-2,6-difluoro-phenyl)-ethylamino]-pyrimidin-4-yl}-1H-indole-4-carboxylic acid], for which the IC50 amounted to 105 nM on PTGER2 (EP2), 148 nM against PTRGER4 (EP4), 303 nM against EP2 and 470 nM at EP4.

Turning to `CCOc1cc(-c2cc(NCCc3c(OC)cc(Br)cc3OC)ncn2)sc1-c1noc(=O)[nH]1` [Example 88, 3-(5-{6-[2-(4-Bromo-2,6-dimethoxy-phenyl)-ethylamino]-pyrimidin-4-yl}-3-ethoxy-thiophen-2yl)-[1,2,4]oxadiazol-5(4H)-one], the 50% inhibitory concentration (IC50) against PTGER2 (EP2) was found to be 9 nM; against PTRGER4 (EP4), 2 nM; against EP2 it was 31 nM; against EP4 it was 6 nM.

Turning to `CCOc1cc(-c2cc(NCCc3cccc(OC)c3)ncn2)sc1C(=O)O` [Example 59, 3-Ethoxy-5-{6-[2-(3-methoxy-phenyl)-ethylamino]-pyrimidin-4-yl}-thiophene-2-carboxylic acid], the half-maximal inhibitory concentration (IC50) was 359 nM against PTGER2 (EP2), 169 nM against PTRGER4 (EP4), 131 nM against EP2 and 51 nM at EP4.

On to `COc1cc(C)c(C)cc1CCNc1cc(-c2ccc(C(=O)O)c(SC)c2)ncn1` [Example 3, 4-{6-[2-(2-Methoxy-4,5-dimethyl-phenyl)-ethylamino]-pyrimidin-4-yl}-2-methylsulfanyl-benzoic acid], for which the IC50 against PTGER2 (EP2) was found to be 86 nM; on PTRGER4 (EP4), 420 nM; against EP2 it was 45 nM; against EP4, 46 nM.

On to `CCOc1cc(-c2cc(NCCc3ccc(Br)cc3)nc(C)n2)sc1-c1noc(=O)[nH]1` [Example 157, 3-(5-{6-[2-(4-Bromo-phenyl)-ethylamino]-2-methyl-pyrimidin-4-yl}-3-ethoxy-thiophen-2-yl)-[1,2,4]oxadiazol-5(4H)-one], for which the IC50 at PTGER2 (EP2) was 64 nM; against PTRGER4 (EP4), 57 nM; on EP2, 99 nM; against EP4, 34 nM.

As for `CCOc1cc(-c2cc(NCCc3c(F)cc(Br)cc3F)ncn2)sc1C(=O)NS(N)(=O)=O` [Example 155, 5-(6-((4-Bromo-2,6-difluorophenethyl)amino)pyrimidin-4-yl)-3-ethoxy-N-sulfamoylthiophene-2-carboxamide], the 50% inhibitory concentration (IC50) at PTGER2 (EP2) amounted to 12 nM; against PTRGER4 (EP4) it was 35 nM; against EP2 it was 20 nM; against EP4 it was 62 nM.

For `CCOc1cc(-c2cc(NCCc3cc(F)c(Br)cc3F)ncn2)sc1-c1noc(=O)[nH]1` [Example 107, 3-(5-{6-[2-(4-Bromo-2,5-difluoro-phenyl)-ethylamino]-pyrimidin-4-yl}-3-ethoxy-thiophen-2yl)-[1,2,4]oxadiazol-5(4H)-one], the half-inhibitory concentration (IC50) at PTGER2 (EP2) was found to be 10 nM; at PTRGER4 (EP4), 2 nM; at EP2 it was 11 nM; against EP4, 7 nM.

With `CCc1cc(-c2cc(NCCc3c(F)cccc3F)ncn2)sc1C(=O)O` [Example 53, 5-{6-[2-(2,6-Difluoro-phenyl)-ethylamino]-pyrimidin-4-yl}-3-ethyl-thiophene-2-carboxylic acid], the IC50 amounted to 437 nM against PTGER2 (EP2), 472 nM on PTRGER4 (EP4), 63 nM at EP2 and 221 nM on EP4.

Regarding `CCOc1cc(-c2cc(NCCc3c(F)cc(Cl)cc3F)ncn2)sc1-c1noc(=O)[nH]1` [Example 105, 3-(5-{6-[2-(4-Chloro-2,6-difluoro-phenyl)-ethylamino]-pyrimidin-4-yl}-3-ethoxy-thiophen-2yl)-[1,2,4]oxadiazol-5(4H)-one], the half-maximal inhibitory concentration (IC50) against PTGER2 (EP2) is 11 nM; against PTRGER4 (EP4), 9 nM; at EP2 it was 40 nM; against EP4 it was 25 nM.

In the case of `CCOc1cc(-c2cc(NCCc3cc(OC)ccc3OC)ncn2)sc1C(=O)O` [Example 72, 5-{6-[2-(2,5-Dimethoxy-phenyl)-ethylamino]-pyrimidin-4-yl}-3-ethoxy-thiophene-2-carboxylic acid], the IC50 against PTGER2 (EP2) was 77 nM; against PTRGER4 (EP4), 104 nM; against EP2, 40 nM; at EP4, 42 nM.

Regarding `CCCc1cc(-c2cc(NCCc3ccc(C(F)(F)F)cc3OCC)ncn2)ccc1C(=O)O` [Example 213, 4-{6-[2-(2-Ethoxy-4-trifluoromethyl-phenyl)-ethylamino]-pyrimidin-4-yl}-2-propyl-benzoic acid], the concentration for half-maximal inhibition (IC50) stood at 71 nM at PTGER2 (EP2), 217 nM on PTRGER4 (EP4), 184 nM on EP2 and 300 nM at EP4.

Take `CCOc1cc(C(F)(F)F)ccc1CCNc1cc(-c2ccc(C(=O)O)c(SC)c2)ncn1` [Example 212, 4-{6-[2-(2-Ethoxy-4-trifluoromethyl-phenyl)-ethylamino]-pyrimidin-4-yl}-2-methylsulfanyl-benzoic acid]: the IC50 came to 26 nM at PTGER2 (EP2), 50 nM against PTRGER4 (EP4), 62 nM against EP2 and 93 nM on EP4.

For `CCOc1cc(-c2cc(NCCc3ccc(Br)c(C)c3)ncn2)sc1-c1noc(=O)[nH]1` [Example 113, 3-(5-{6-[2-(4-Bromo-3-methyl-phenyl)-ethylamino]-pyrimidin-4-yl}-3-ethoxy-thiophen-2-yl)-[1,2,4]oxadiazol-5(4H)-one], the 50% inhibitory concentration (IC50) against PTGER2 (EP2) was 47 nM; on PTRGER4 (EP4), 3 nM; at EP2, 113 nM; on EP4, 29 nM.

For the molecule `COc1cc(SC)ccc1CCNc1cc(-c2ccc(C(=O)O)c(SC)c2)ncn1` [Example 2, 4-{6-[2-(2-Methoxy-4-methylsulfanyl-phenyl)-ethylamino]-pyrimidin-4-yl}-2-methylsulfanyl-benzoic acid], the IC50 on PTGER2 (EP2) was 438 nM; against PTRGER4 (EP4), 550 nM; on EP2, 79 nM; against EP4, 112 nM.

In the case of `CCOc1cc(C(F)(F)F)ccc1CCNc1cc(-c2ccc(C(=O)O)c(OCC)c2)ncn1` [Example 211, 2-Ethoxy-4-{6-[2-(2-ethoxy-4-trifluoromethyl-phenyl)-ethylamino]-pyrimidin-4-yl}-benzoic acid], the IC50 against PTGER2 (EP2) was determined as 106 nM; against PTRGER4 (EP4) it was 126 nM; against EP2, 148 nM; against EP4, 170 nM.

As to `CCOc1cc(-c2cc(NCCc3c(F)cc(Br)cc3F)ncn2)ccc1Cc1noc(=O)[nH]1` [Example 282, 3-(4-{6-[2-(4-Bromo-2,6-difluoro-phenyl)-ethylamino]-pyrimidin-4-yl}-2-ethoxy-benzyl)-[1,2,4]oxadiazol-5(4H)-one], the half-inhibitory concentration (IC50) at PTGER2 (EP2) is 135 nM; at PTRGER4 (EP4) it was 83 nM; against EP2, 1030 nM; against EP4, 380 nM.

As for `Cc1cc(-c2cc(NCCc3c(F)cc(Br)cc3F)ncn2)sc1C(=O)O` [Example 28, 5-{6-[2-(4-Bromo-2,6-difluoro-phenyl)-ethylamino]-pyrimidin-4-yl}-3-methyl-thiophene-2-carboxylic acid], the IC50 was found to be 49 nM against PTGER2 (EP2), 80 nM against PTRGER4 (EP4), 41 nM against EP2 and 41 nM against EP4.

Turning to `CCOc1cc(-c2cc(NCCc3c(F)ccc(Cl)c3F)ncn2)sc1-c1noc(=O)[nH]1` [Example 98, 3-(5-{6-[2-(3-Chloro-2,6-difluoro-phenyl)-ethylamino]-pyrimidin-4-yl}-3-ethoxy-thiophen-2yl)-[1,2,4]oxadiazol-5(4H)-one], the half-inhibitory concentration (IC50) on PTGER2 (EP2) came out at 53 nM; at PTRGER4 (EP4) it was 14 nM; against EP2, 83 nM; on EP4 it was 50 nM.

`CCOc1cc(-c2cc(NCCc3c(C)cccc3OC)ncn2)sc1C(=O)O` [Example 178, 3-Ethoxy-5-{6-[2-(2-methoxy-6-methyl-phenyl)-ethylamino]-pyrimidin-4-yl}-thiophene-2-carboxylic acid]: the IC50 on PTGER2 (EP2) was determined as 29 nM; against PTRGER4 (EP4), 404 nM; at EP2, 10 nM; against EP4 it was 134 nM.

In the case of `CCOc1cc(-c2cc(NCCc3ccc(Br)cc3)ncn2)sc1-c1noc(=O)[nH]1` [Example 130, 3-(5-{6-[2-(4-Bromo-phenyl)-ethylamino]-pyrimidin-4-yl}-3-ethoxy-thiophen-2-yl)-[1,2,4]oxadiazol-5(4H)-one], the 50% inhibitory concentration (IC50) came out at 22 nM against PTGER2 (EP2), 4 nM against PTRGER4 (EP4), 63 nM at EP2 and 24 nM at EP4.

For the molecule `CCOc1cc(-c2cc(NCCc3c(F)ccc(F)c3Cl)ncn2)sc1-c1noc(=O)[nH]1` [Example 100, 3-(5-{6-[2-(2-Chloro-3,6-difluoro-phenyl)-ethylamino]-pyrimidin-4-yl}-3-ethoxy-thiophen-2yl)-[1,2,4]oxadiazol-5(4H)-one], the IC50 on PTGER2 (EP2) turned out to be 17 nM; against PTRGER4 (EP4), 27 nM; on EP2, 50 nM; against EP4 it was 59 nM.

In the case of `O=C(O)c1ccc(-c2cc(NCCc3c(F)cc(Br)cc3F)ncn2)cc1OC1CCC1` [Example 42, 4-{6-[2-(4-Bromo-2,6-difluoro-phenyl)-ethylamino]-pyrimidin-4-yl}-2-cyclobutoxy-benzoic acid], the IC50 against PTGER2 (EP2) is 59 nM; at PTRGER4 (EP4), 241 nM; on EP2, 50 nM; against EP4 it was 297 nM.
